{"source": "patent US6150385A", "about": "“1,3,4-thiadiazoles useful for the treatment of CMV infections” (Pharmacia & Upjohn Company, priority 1999, dated 2000)", "data": [{"target": "T1, HCMV polymerase (Human cytomegalovirus, UniProt P08546)", "T1 construct": "made in house; host or cells: SF-9 insect cells infected with recombinant baculovirus", "T1 sequence (P08546 whole entry)": "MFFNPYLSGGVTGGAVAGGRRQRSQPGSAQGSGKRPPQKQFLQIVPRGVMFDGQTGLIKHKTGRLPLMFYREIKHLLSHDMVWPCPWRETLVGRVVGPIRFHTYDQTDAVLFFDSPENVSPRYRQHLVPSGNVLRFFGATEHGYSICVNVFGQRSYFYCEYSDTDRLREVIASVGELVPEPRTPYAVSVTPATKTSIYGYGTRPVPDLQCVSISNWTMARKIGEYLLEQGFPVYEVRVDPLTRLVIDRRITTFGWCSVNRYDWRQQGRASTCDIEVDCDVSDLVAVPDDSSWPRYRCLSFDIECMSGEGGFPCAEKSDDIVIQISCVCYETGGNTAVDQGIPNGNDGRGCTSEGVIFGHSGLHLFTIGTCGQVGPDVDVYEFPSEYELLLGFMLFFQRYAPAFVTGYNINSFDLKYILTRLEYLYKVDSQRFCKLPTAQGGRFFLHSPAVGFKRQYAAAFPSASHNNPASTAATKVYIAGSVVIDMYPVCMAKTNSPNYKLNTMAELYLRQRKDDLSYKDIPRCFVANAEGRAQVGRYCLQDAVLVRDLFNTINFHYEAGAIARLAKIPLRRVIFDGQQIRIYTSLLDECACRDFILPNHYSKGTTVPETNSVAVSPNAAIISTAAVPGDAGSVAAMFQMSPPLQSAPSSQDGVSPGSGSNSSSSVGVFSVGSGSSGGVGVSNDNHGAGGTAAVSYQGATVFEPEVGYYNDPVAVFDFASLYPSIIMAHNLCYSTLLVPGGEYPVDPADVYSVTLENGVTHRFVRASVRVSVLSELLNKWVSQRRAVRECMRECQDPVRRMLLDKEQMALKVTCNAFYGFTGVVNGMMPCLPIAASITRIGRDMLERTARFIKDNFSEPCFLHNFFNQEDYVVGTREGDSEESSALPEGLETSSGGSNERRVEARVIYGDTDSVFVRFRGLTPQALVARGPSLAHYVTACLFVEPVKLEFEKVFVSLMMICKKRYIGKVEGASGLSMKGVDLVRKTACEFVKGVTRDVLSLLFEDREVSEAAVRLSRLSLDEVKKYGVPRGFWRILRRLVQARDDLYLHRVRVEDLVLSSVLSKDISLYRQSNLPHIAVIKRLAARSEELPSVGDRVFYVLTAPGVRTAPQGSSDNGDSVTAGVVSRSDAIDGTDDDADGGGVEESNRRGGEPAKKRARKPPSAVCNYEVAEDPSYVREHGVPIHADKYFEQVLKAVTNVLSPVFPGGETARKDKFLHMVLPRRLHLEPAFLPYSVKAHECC", "assay": "HCMV polymerase assay (scintillation proximity assay)", "format": "biochemical", "conditions": "percentage of inhibition at 25 μM concentration in CMV polymerase assay", "how_it_was_run": "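Baculovirus/SF-9-expressed HCMV polymerase in 5.4 mM HEPES pH 7.5, 11.7 mM KCl, 4.5 mM MgCl2, 0.36 mg/ml BSA, 90 nM 3H-dTTP, with or without 2 mM CHAPS. Started with 6 nM biotinylated poly(dA)-oligo(dT), 30 min at 25 or 37 °C, EDTA-stopped, read by streptavidin-SPA counting; % inhibition at 25 μM.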", "units": {"inhibition at 25 µM": "%"}, "values": [{"smiles": "O=C(Nc1nnc(NC2CCCc3ccccc32)s1)c1cc2ccccc2s1", "note": "(centres unmarked) [compound 343, N-[5-(1,2,3,4-tetrahydro-1-naphthalenylamino)-1,3,4-thiadiazol-2-yl]-1-benzothiophene-2-carboxamide]", "inhibition at 25 µM": 31.2}, {"smiles": "CCOC(=O)N1CCC(Nc2nnc(NC(=O)/C=C/c3ccccc3Cl)s2)CC1", "note": "[compound 344]", "inhibition at 25 µM": 31.1}, {"smiles": "N#Cc1ccc(C(=O)Nc2nnc(NCCc3ccccc3)s2)cc1", "note": "[compound 345, 4-cyano-N-[5-(phenethylamino)-1,3,4-thiadiazol-2-yl]benzamide]", "inhibition at 25 µM": 30.9}, {"smiles": "O=C(CCCCCl)Nc1nnc(NCCc2c[nH]c3ccccc23)s1", "note": "[compound 346, 5-chloro-N-(5-{[2-(1H-indol-3-yl)ethyl]amino}-1,3,4-thiadiazol-2-yl)pentanamide]", "inhibition at 25 µM": 30.7}, {"smiles": "O=C(Nc1nnc(NC2CCCc3ccccc32)s1)c1cccc([N+](=O)[O-])c1", "note": "(centres unmarked) [compound 347, 3-nitro-N-[5-(1,2,3,4-tetrahydro-1-naphthalenylamino)-1,3,4-thiadiazol-2-yl]benzamide]", "inhibition at 25 µM": 30.6}, {"smiles": "COc1ccccc1C(=O)Nc1nnc(NCc2ccc(F)cc2)s1", "note": "[compound 348, N-{5-[(4-fluorobenzyl)amino]-1,3,4-thiadiazol-2-yl}-2-methoxybenzamide]", "inhibition at 25 µM": 30.4}, {"smiles": "O=C(Nc1nnc(NCc2ccco2)s1)c1cc2ccccc2s1", "note": "[compound 349, N-{5-[(2-furylmethyl)amino]-1,3,4-thiadiazol-2-yl}-1-benzothiophene-2-carboxamide]", "inhibition at 25 µM": 30.3}, {"smiles": "O=C(Nc1nnc(NCc2ccc(Cl)c(Cl)c2)s1)c1ccc([N+](=O)[O-])o1", "note": "[compound 350, N-{5-[(3,4-dichlorobenzyl)amino]-1,3,4-thiadiazol-2-yl}-5-nitro-2-furamide]", "inhibition at 25 µM": 30.3}, {"smiles": "O=C(Nc1nnc(NCCc2c[nH]c3ccccc23)s1)c1ccc(Br)cc1", "note": "[compound 351, 4-bromo-N-(5-{[2-(1H-indol-3-yl)ethyl]amino}-1,3,4-thiadiazol-2-yl)benzamide]", "inhibition at 25 µM": 30.3}, {"smiles": "O=C(/C=C/c1ccccc1Cl)Nc1nnc(NCc2ccncc2)s1", "note": "[compound 352, (E)-3-(2-chlorophenyl)-N-[5-[(4-pyridinylmethyl)amino]-1,3,4-thiadiazol-2-yl}-2-propenamide]", "inhibition at 25 µM": 30.2}, {"smiles": "O=C(/C=C/c1ccccc1Cl)Nc1nnc(NC2CC2)s1", "note": "[compound 353, (E)-3-(2-chlorophenyl)-N-[5-(cyclopropylamino)-1,3,4-thiadiazol-2-yl]-2-propenamide]", "inhibition at 25 µM": 30.2}, {"smiles": "O=C(CCCCCl)Nc1nnc(NCCc2ccccc2)s1", "note": "[compound 354, 5-chloro-N-[5-(phenethylamino)-1,3,4-thiadiazol-2-yl]pentanamide]", "inhibition at 25 µM": 29.9}, {"smiles": "O=C(Nc1nnc(NC2CCc3ccccc32)s1)c1cccc([N+](=O)[O-])c1", "note": "(centres unmarked) [compound 355, N-[5-(2,3-dihydro-1H-inden-1-ylamino)-1,3,4-thiadiazol-2-yl]-3-nitrobenzamide]", "inhibition at 25 µM": 29.8}, {"smiles": "Cc1ccc(C(=O)Nc2nnc(NCCCCc3ccccc3)s2)cc1", "note": "[compound 356, 4-methyl-N-{5-[(4-phenylbutyl)amino]-1,3,4-thiadiazol-2-yl}benzamide]", "inhibition at 25 µM": 29.6}, {"smiles": "O=C(/C=C/c1ccccc1Cl)Nc1nnc(NCCCCc2ccccc2)s1", "note": "[compound 357, (E)-3-(2-chlorophenyl)-N-{5-[(4-phenylbutyl)amino]-1,3,4-thiadiazol-2-yl}-2-propenamide]", "inhibition at 25 µM": 29.4}, {"smiles": "CC(C)c1cc(C(C)C)c(C(=O)Nc2nnc(NCc3ccc4c(c3)OCO4)s2)c(C(C)C)c1", "note": "[compound 358, N-{5-[(1,3-benzodioxol-5-ylmethyl)amino]-1,3,4-thiadiazol-2-yl}-2,4,6-triisopropylbenzamide]", "inhibition at 25 µM": 29.3}, {"smiles": "Cc1ccc(C(=O)Nc2nnc(NCCc3ccccc3)s2)cc1", "note": "[compound 359, 4-methyl-N-[5-(phenethylamino)-1,3,4-thiadiazol-2-yl]benzamide]", "inhibition at 25 µM": 29.1}]}]}
